In patent publication US20100022559A1, “BISOXIMES AS FUNGICIDES” (BAYER CROPSCIENCE AG, priority 2006, published 2010):
Blank lines part the entries; values can stand above or below the molecule they belong to.

Experiment: logP determination by HPLC on a reversed-phase column (C 18), EEC Directive 79/831 Annex V.A8
Type: physicochemical
Procedure: The stated logP values were determined in accordance with EEC Directive 79/831 Annex V.A8 by HPLC (high performance liquid chromatography) on a reversed-phase column (C 18). Temperature: 43° C.

[1] = method marker [b], isomer A / isomer B / isomer mixture as noted in the cell
[2] = method marker [a] (footnote not shown), isomer A / isomer B / isomer mixture as noted in the cell
[3] = [a] acidic range, pH 2.3, 0.1% aqueous phosphoric acid and acetonitrile

SMILES: C=C(CON=C(C)c1ccc(Cl)s1)CON=C(C)c1ccc(Cl)s1 [compound 20]
- logP [1]: 5.88^[b]

SMILES: Cc1cccnc1C(CC(C)C)=NOCC(C)CON=C(CC(C)C)c1ncccc1C (single isomer, unassigned) [compound 110]
- logP [2]: 5.78^[a] (isomer A)

SMILES: Cc1cccnc1C(=NOCC(C)CON=C(c1ccccc1)c1ncccc1C)c1ccccc1 (centres unmarked) [compound 658]
- logP (method marked [a] in Table 1): 4.54^[a]

SMILES: Cc1cccc(C(=NOCCCON)C(C)C)n1 [XII-2]
- logP [3]: 1.05^[a]

SMILES: C=C(CON=C(C)c1cccnc1Cl)CON=C(C)c1cccnc1Cl [compound 148]
- logP [1]: 3.53^[b]

SMILES: CCC(CC)(CON=C(C)c1cc(C)cc(C)n1)CON=C(C)c1cc(C)cc(C)n1 [Compound 811]
- logP (value marked [b]): 4.79^[b]
- logP (value marked [c]): 7.36^[c]

SMILES: CC(=NOC[Si](C)(CON=C(C)c1ccc(C)c(C)n1)C(C)C)c1ccc(C)c(C)n1 [Compound 837]
- logP (value marked [a]): 6.76^[a]
- logP (value marked [b]): 6.76^[b]
- logP (value marked [c]): 7.36^[c]

SMILES: C/C(=N\OCC(C)CON)c1cc(C)cc(C)n1 (racemic) [XII-9]
- logP [3]: 0.49^[a]
- logP ([b] LC-MS, acidic range, pH 2.7, 0.1% aqueous formic acid and acetonitrile): 0.49^[b]

SMILES: CC(=NOCCCON=C(C)c1ccc(C)cn1)c1ccc(C)cn1 [Compound 81]
- logP [2]: 2.90^[a]

SMILES: CCC(=NOCCCCCCON=C(C)c1cccc(C)n1)c1ncccc1C (single isomer, unassigned) [compound 532]
- logP (value marked [b]): 3.99^b] (isomer )A

SMILES: Cc1cccnc1C(Cc1ccccc1)=NOCCCON=C(Cc1ccccc1)c1ncccc1C (single isomer, unassigned) [Compound 97]
- logP [2]: 4.89^[a] (isomer A)

SMILES: CC(=NOCC(C)CON=C(C)c1csc(Cl)n1)c1csc(Cl)n1 (mixture of isomers) [compound 231]
- logP [2]: 5.16^[a]

SMILES: C=C(CON=C(C)c1ccc(C(F)(F)F)cn1)CON=C(C)c1ccc(C(F)(F)F)cn1 [Compound 61]
- logP [1]: 6.18^[b]

SMILES: CC(=NOCC1(CON=C(C)c2ccc(C)c(C)n2)COC(=O)N1)c1ccc(C)c(C)n1 (centres unmarked) [compound 857]
- logP (value marked [b]): 1.96^[b]
- logP (value marked [c]): 3.70^[c]

SMILES: CC(=NOCC(C)CON=C(C)c1cccc(C(F)F)n1)c1cccc(C(F)F)n1 (centres unmarked) [compound 306]
- logP (value marked [a]): 5.49^[a]

SMILES: CC(=NOCC(C)(C)CON=C(C)c1ccc2c(n1)CCCC2)c1ccc2c(n1)CCCC2 [Compound 303]
- logP (value marked [a]): 5.49^[a]

SMILES: CC(=NOCC(C)(C)CON=C(C)c1cc(Cl)cc(C)n1)c1cc(Cl)cc(C)n1 [compound 804]
- logP (value marked [a]): 7.36^[a]

Now from value to molecule:

- logP [1]: 5.08^[b]
SMILES: C=C(CON=C(C)c1cccc(C)n1)CON=C(CC(C)C)c1ncccc1C (mixture of isomers) [compound 154]

- logP (value marked [b]): 4.51^[b]
SMILES: CCC(=NOCC(C)(C)CON=C(C)c1cccc(C)n1)c1ncccc1C [compound 369]

- logP (method marked [b] in Table 1): 3.56^[b] (isomer A)
SMILES: CC(=NOCCCCON=C(C)c1sc(C)nc1C)c1cccc(C)n1 (single isomer, unassigned) [compound 540]

- logP (value marked [b]): 4.87^[b]
SMILES: C=C(CON=C(C)c1cccc(C)n1)CON=C(CCC)c1cccc(C)n1 [compound 355]

- logP (method marked [b] in Table 1): 4.15^[b]
- logP (method marked [c] in Table 1): 6.01^[c]
SMILES: CC(=NOCC(CON=C(C)c1nc(C)ccc1C)Cc1ccccc1)c1nc(C)ccc1C (centres unmarked) [compound 590]

- logP (value marked [b]): 4.51^[b]
SMILES: CC(=NOCCCCCCON=C(C)c1ccnc(C)n1)c1cccc(C)n1 [compound 348]

- logP [2]: 5.83^[a]
SMILES: CCCC(=NOCCCON=C(CCC)c1cccc(C)n1)c1cccc(C)n1 [Compound 91]

- logP (value marked [b]): 4.91^b](isomer A)
SMILES: CC(=NOCCCCCCON=C(c1cccc(C)n1)C(C)C)c1cccc(C)n1 (single isomer, unassigned) [compound 526]

- logP (value marked [b]): 4.85^[b]
SMILES: CC(=NOCC(C)CON=C(C)c1nc(C)c(C)s1)c1cccc(C)n1 (centres unmarked) [compound 434]

- logP (value marked [b]): 5.84^[b]
SMILES: CC(=NOCCCCON=C(C)c1cccc(Cc2ccccc2)n1)c1cccc(C)n1 [compound 324]

- logP (method marked [b] in Table 1): 2.49^[b]
- logP (method marked [c] in Table 1): 4.33^[c]
SMILES: CC(=NOCc1cccc(CON=C(C)c2cccc(C)n2)n1)c1cccc(C)n1 [Compound 740]
